Results published in ChEMBL document CHEMBL1201862, “PubChem BioAssay data set” (2004).
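Cultured in 96-well plates, cells were exposed to test compound for 48 hours across five concentrations. GI50 marks 50% less growth.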 Calls of active or inactive are those of the source. Rule as the data show it: active = GI50 up to about 1.1 µM and inactive = higher.

Key:
Assay in all cases: DTP human tumour cell line panel, 48 h
[1] = tested on: 786-0
[2] = tested on: CAKI-1
[3] = tested on: CCRF-CEM
[4] = tested on: DU-145
[5] = tested on: HOP-92
[6] = tested on: HT-29
[7] = tested on: Hs-578T
[8] = tested on: LOX IMVI
[9] = tested on: M14
[10] = tested on: MOLT-4
[11] = tested on: NCI-H226
[12] = tested on: NCI-H23
[13] = tested on: OVCAR-3
[14] = tested on: OVCAR-8
[15] = tested on: SK-MEL-28
[16] = tested on: UACC-257
[17] = tested on: COLO 205
[18] = tested on: HCC 2998
[19] = tested on: MCF7
[20] = tested on: SNB-75

| SMILES | GI50 [1] | GI50 [2] | GI50 [3] | GI50 [4] | GI50 [5] | GI50 [6] | GI50 [7] | GI50 [8] | GI50 [9] | GI50 [10] | GI50 [11] | GI50 [12] | GI50 [13] | GI50 [14] | GI50 [15] | GI50 [16] | GI50 [17] | GI50 [18] | GI50 [19] | GI50 [20] |
| --- | --- | --- | --- | --- | --- | --- | --- | --- | --- | --- | --- | --- | --- | --- | --- | --- | --- | --- | --- | --- |
| O=[N+]([O-])c1cc(-c2ccc([As](=O)(O)O)cc2)ccc1[As](=O)(O)O | > 100 µM (inactive) | > 100 µM (inactive) | > 100 µM (inactive) | > 100 µM (inactive) | > 100 µM (inactive) | > 100 µM (inactive) | > 100 µM (inactive) | > 100 µM (inactive) | > 100 µM (inactive) | > 100 µM (inactive) | > 100 µM (inactive) | > 100 µM (inactive) | > 100 µM (inactive) | > 100 µM (inactive) | > 100 µM (inactive) | > 100 µM (inactive) |  |  |  |  |
| O=C1Nc2c(Cl)cc(Cl)cc2/C1=N/N=C/c1ccccc1O | 19.4 µM (inactive) | 19.4 µM (inactive) | 21.5 µM (inactive) |  | 27.1 µM (inactive) | 20.4 µM (inactive) | 26.5 µM (inactive) | 16.3 µM (inactive) | 23.1 µM (inactive) | 20.7 µM (inactive) | 27.2 µM (inactive) | 19.5 µM (inactive) | 16.3 µM (inactive) | 21.4 µM (inactive) | 20.1 µM (inactive) | 23.5 µM (inactive) | 16.4 µM (inactive) | 17.9 µM (inactive) | 30 µM (inactive) | 23.5 µM (inactive) |
| Cc1ccc(C(=O)/C=C2\Nc3ccccc3S\C2=N\CS(=O)(=O)c2ccc(C)cc2)cc1 | > 10 µM (inactive) | > 10 µM (inactive) | > 10 µM (inactive) | > 10 µM (inactive) | > 10 µM (inactive) | > 10 µM (inactive) | 8.43 µM (inactive) | > 10 µM (inactive) | > 10 µM (inactive) | > 10 µM (inactive) |  | > 10 µM (inactive) | 4.33 µM (inactive) | > 10 µM (inactive) | > 10 µM (inactive) | > 10 µM (inactive) | > 10 µM (inactive) | > 10 µM (inactive) | 4.3 µM (inactive) | > 10 µM (inactive) |
| COC1C(O)CC(OC2CC(OC3CC(O[C@@H]4C(=O)c5c(cc6cc(OC7CC(OC8CC(O)C(O)C(C)O8)C(O)C(C)O7)c(C)c(O)c6c5O)C[C@H]4[C@H](OC)C(=O)[C@@H](O)[C@@H](C)O)OC(C)C3O)OC(C)C2O)OC1C (stereo partly specified) | < 0.0194 µM (active) | 0.356 µM (active) |  | < 0.01 µM (active) | < 0.014 µM (active) | < 0.0168 µM (active) | < 0.01 µM (active) |  | 0.0267 µM (active) | < 0.0159 µM (active) | < 0.104 µM (active) |  | < 0.0271 µM (active) | < 0.0193 µM (active) | < 0.0126 µM (active) | < 0.0166 µM (active) | 0.0189 µM (active) | 0.0136 µM (active) |  | < 0.0331 µM (active) |
| CC(=O)N1C(=O)/C(=C\C(=O)c2ccc([N+](=O)[O-])cc2)c2ccccc21 | 15.5 µM (inactive) | 22.5 µM (inactive) | 3.94 µM (inactive) | 67 µM (inactive) |  | 17.8 µM (inactive) | 22.2 µM (inactive) |  | 31 µM (inactive) | 19.5 µM (inactive) | > 100 µM (inactive) | 28.9 µM (inactive) | 16.7 µM (inactive) | 47.5 µM (inactive) |  | 19 µM (inactive) | 18.8 µM (inactive) | 19.3 µM (inactive) | 21.3 µM (inactive) | 21.9 µM (inactive) |
| O=C1C=CC(=O)c2c(NCC3CC3)ccc(NCC3CC3)c21 | 56.4 µM (inactive) |  |  |  |  | 32.2 µM (inactive) | 82.8 µM (inactive) | 20.7 µM (inactive) | 18.5 µM (inactive) | 11.8 µM (inactive) |  | 26.4 µM (inactive) | 26.7 µM (inactive) | 56.2 µM (inactive) | 28.6 µM (inactive) | 29.3 µM (inactive) | 19.7 µM (inactive) | 57.5 µM (inactive) | 24.7 µM (inactive) |  |
| O=C(c1ccccc1)c1ccc2[nH]c(-c3c(Cl)c(Cl)c(Cl)c(Cl)c3C(=O)N/N=C\C=C\c3ccccc3)nc2c1 | 35.8 µM (inactive) | 77.4 µM (inactive) | 12 µM (inactive) | 73.1 µM (inactive) | 41.1 µM (inactive) | 45 µM (inactive) | 52.7 µM (inactive) | 48.9 µM (inactive) | 53.5 µM (inactive) | 17.7 µM (inactive) | 42.8 µM (inactive) | 59.3 µM (inactive) | 25.1 µM (inactive) | 60 µM (inactive) | 51.3 µM (inactive) | 83.9 µM (inactive) | 30.5 µM (inactive) |  | 20.7 µM (inactive) | 59.4 µM (inactive) |
| CCOC(=O)CC(=O)Nc1cccc2sc3ncccc3c(=O)c12 | 35 µM (inactive) | 27.9 µM (inactive) | 10.8 µM (inactive) | 84.9 µM (inactive) |  | 38.8 µM (inactive) | 19.1 µM (inactive) | 19 µM (inactive) | 87.1 µM (inactive) | 10 µM (inactive) | 27.9 µM (inactive) | 32 µM (inactive) | 34.4 µM (inactive) | 52.4 µM (inactive) | 47.8 µM (inactive) | > 100 µM (inactive) | 68.2 µM (inactive) | 25.9 µM (inactive) | 0.57 µM (active) | 12.9 µM (inactive) |
| Cc1ccc(/N=N/c2c(O)ccc3ccccc23)cc1 | > 100 µM (inactive) | > 100 µM (inactive) | 27.1 µM (inactive) | > 100 µM (inactive) | > 100 µM (inactive) | > 100 µM (inactive) | > 100 µM (inactive) | > 100 µM (inactive) | > 100 µM (inactive) | 46.8 µM (inactive) | > 100 µM (inactive) | > 100 µM (inactive) | 32.4 µM (inactive) | > 100 µM (inactive) | > 100 µM (inactive) | > 100 µM (inactive) | > 100 µM (inactive) |  |  | > 100 µM (inactive) |
| CC(C)CC(NC(=O)C(Cc1ccccc1)NC(=O)[C@H]1CC[C@H](NC(=O)C(Cc2ccc(OC(C)(C)C)cc2)NC(=O)OC(C)(C)C)C1)C(N)=O (stereo partly specified) | 46.7 µM (inactive) | > 100 µM (inactive) | 14.6 µM (inactive) |  | 23.8 µM (inactive) | 18.9 µM (inactive) | 11.5 µM (inactive) | 17.1 µM (inactive) | 16.6 µM (inactive) | 12.5 µM (inactive) | 18.6 µM (inactive) | 16.2 µM (inactive) | 25.9 µM (inactive) | 18.4 µM (inactive) | 20.2 µM (inactive) | 19.7 µM (inactive) | 18.8 µM (inactive) | 14.5 µM (inactive) | 17.3 µM (inactive) | 27.8 µM (inactive) |
| Cn1c(=O)c2c(nc3[nH]c(=O)c(Br)cn32)n(C)c1=O | > 100 µM (inactive) | > 100 µM (inactive) | > 100 µM (inactive) | > 100 µM (inactive) | > 100 µM (inactive) | > 100 µM (inactive) | > 100 µM (inactive) | > 100 µM (inactive) | > 100 µM (inactive) | > 100 µM (inactive) | > 100 µM (inactive) | > 100 µM (inactive) | > 100 µM (inactive) | > 100 µM (inactive) | > 100 µM (inactive) | > 100 µM (inactive) | > 100 µM (inactive) | > 100 µM (inactive) |  | > 100 µM (inactive) |
| O=C(O)c1ccc(Nc2nc3cc(C(F)(F)F)ccc3nc2C(=O)O)cc1 | > 100 µM (inactive) | > 100 µM (inactive) |  | > 100 µM (inactive) |  | > 100 µM (inactive) | > 100 µM (inactive) | > 100 µM (inactive) |  | > 100 µM (inactive) | > 100 µM (inactive) | > 100 µM (inactive) | > 100 µM (inactive) | > 100 µM (inactive) | > 100 µM (inactive) |  | > 100 µM (inactive) | > 100 µM (inactive) | > 100 µM (inactive) | > 100 µM (inactive) |
| c1cc(-c2ccsc2-c2ccsc2)cs1 | > 93.3 µM (inactive) | > 100 µM (inactive) | 50.1 µM (inactive) |  | > 92.3 µM (inactive) | > 100 µM (inactive) | 59.3 µM (inactive) | 55.3 µM (inactive) | > 100 µM (inactive) | 25.2 µM (inactive) |  | 46.3 µM (inactive) | 23.8 µM (inactive) | > 100 µM (inactive) | > 100 µM (inactive) | > 100 µM (inactive) | > 87.1 µM (inactive) | 46.8 µM (inactive) | > 60.4 µM (inactive) | 44.5 µM (inactive) |
| CCOC(=O)NC(NC(C)CC)(C(F)(F)F)C(F)(F)F (stereo unspecified) | > 100 µM (inactive) | > 100 µM (inactive) | > 100 µM (inactive) | > 100 µM (inactive) | > 100 µM (inactive) | > 100 µM (inactive) | > 100 µM (inactive) | > 100 µM (inactive) | > 100 µM (inactive) | > 100 µM (inactive) | > 100 µM (inactive) | > 100 µM (inactive) | > 100 µM (inactive) | > 100 µM (inactive) | > 100 µM (inactive) | > 100 µM (inactive) | > 100 µM (inactive) |  | > 100 µM (inactive) | > 100 µM (inactive) |
| CC(=O)c1cccc(NC(=O)C(=O)c2c(O)oc3ccccc3c2=O)c1 | > 100 µM (inactive) | > 100 µM (inactive) | > 100 µM (inactive) |  | > 100 µM (inactive) | > 100 µM (inactive) | > 100 µM (inactive) | > 100 µM (inactive) | > 100 µM (inactive) | > 100 µM (inactive) | > 100 µM (inactive) | > 100 µM (inactive) | > 100 µM (inactive) | > 100 µM (inactive) | > 100 µM (inactive) | > 100 µM (inactive) |  | > 100 µM (inactive) | > 100 µM (inactive) | > 100 µM (inactive) |
